The values that follow are results of earlier work, collected in patent publication US7887848B2, “Nutraceutical treatments for diabetic and non-diabetic wound healing” (Interhealth Nutraceuticals, Inc., priority 2006, dated 2011).

SMILES strings stand for the structures.

Take `OO` [H2O2]: under “H2O2 at strength of 3%”, the “beneficial effect on wounds” value is given as “no beneficial effect”. Where the note is “topical H2O2 (Roy et al. 2006)”, the dermal wound healing result is listed as “facilitates dermal wound healing”.
